{
  "source": "patent US7449476B2",
  "about": "“Tetrahydrocarboline antiviral agents” (priority 2004, dated 2008)",
  "data": [
    {"test_system": "HIV-1", "assay": "Single-round infectious HIV-1 luciferase reporter virus infection of HeLa CD4 cells", "type": "cell-based", "conditions": "Human immunodeficiency virus 1, HeLa, 72 h", "procedure": "Cells: (virus production) human embryonic kidney cell line, 293, was propagated in Dulbecco's Modified Eagle Medium (Invitrogen, Carlsbad, Calif.) containing 10% fetal Bovine serum (FBS, Sigma, St. Louis, Mo.); (virus infection) human epithelial cell line, HeLa, expressing the HIV-1 receptor CD4 was propagated in Dulbecco's Modified Eagle Medium (Invitrogen, Carlsbad, Calif.) containing 10% fetal Bovine serum (FBS, Sigma, St. Louis, Mo.) and supplemented with 0.2 mg/mL Geneticin (Invitrogen, Carlsbad, Calif.).\nVirus: single-round infectious reporter virus was produced by co-transfecting human embryonic kidney 293 cells with an HIV-1 envelope DNA expression vector and a proviral cDNA containing an envelope deletion mutation and the luciferase reporter gene inserted in place of HIV-1 nef sequences. Transfections were performed using lipofectAMINE PLUS reagent as described by the manufacturer (Invitrogen, Carlsbad, Calif.).\nExperiment: HeLa CD4 cells were plated in 96 well plates at a cell density of 1×10^4 cells per well in 100 μl Dulbecco's Modified Eagle Medium containing 10% fetal Bovine serum and incubated overnight. Compound was added in a 2 μl dimethylsulfoxide solution, so that the final assay concentration would be ≦10 μM. Single-round infectious reporter virus (100 μL) in Dulbecco's Modified Eagle Medium was then added to the plated cells and compound at an approximate multiplicity of infection (MOI) of 0.01, resulting in a final volume of 200 μl per well. Virally-infected cells were incubated at 37 degrees Celsius, in a CO2 incubator, and harvested 72 h after infection. Viral infection was monitored by measuring luciferase expression from viral DNA in the infected cells using a luciferase reporter gene assay kit, as described by the manufacturer (Roche Molecular Biochemicals, Indianapolis, Ind.). Infected cell supernatants were removed and 50 μl of lysis buffer was added per well. After 15 minutes, 50 μl of freshly-reconstituted luciferase assay reagent was added per well. Luciferase activity was then quantified by measuring luminescence using a Wallac microbeta luminescence reader.\nThe percent inhibition for each compound was calculated by quantifying the level of luciferase expression in cells infected in the presence of each compound as a percentage of that observed for cells infected in the absence of compound and subtracting such a determined value from 100. The effective concentration for fifty percent inhibition (EC50) was calculated with Microsoft Excel Xlfit curve fitting software. For each compound, curves were generated from percent inhibition calculated at 10 different concentrations by using a four paramenter logistic model (model 205).", "units": {"EC50": "nM"}, "values": [
      {"smiles": "COc1ncc(OC)c2c(C(=O)C(=O)N3CCc4c(c5ccccc5n4-c4ccccc4)C3)c[nH]c12", "note": "[Example 1, 1-(5-Phenyl-1,3,4,5-tetrahydro-pyrido[4,3-b]indol-2-yl)-2-(4,7-dimethoxy-6-azaindol-3-yl)-ethane-1,2-dione]", "EC50": "< 1000"},
      {"smiles": "COc1ncc(OC)c2c(C(=O)C(=O)N3CCc4[nH]c5ccccc5c4C3)c[nH]c12", "note": "[Example 2, 1-(1,3,4,5-Tetrahydro-pyrido[4,3-b]indol-2-yl)-2-(4,7-dimethoxy-6-azaindol-3-yl)-ethane-1,2-dione]", "EC50": "> 5000"},
      {"smiles": "COc1ncc(OC)c2c(C(=O)C(=O)N3CCc4[nH]c5ccc(F)cc5c4C3)c[nH]c12", "note": "[Example 3, 1-(8-Fluoro-1,3,4,5-tetrahydro-pyrido[4,3-b]indol-2-yl)-2-(4,7-dimethoxy-6-azaindol-3-yl)-ethane-1,2-dione]", "EC50": "> 5000"},
      {"smiles": "COc1ncc(OC)c2c(C(=O)C(=O)N3CCc4c(c5cc(F)ccc5n4C)C3)c[nH]c12", "note": "[Example 4, 1-(8-Fluoro-5-methyl-1,3,4,5-tetrahydro-pyrido[4,3-b]indol-2-yl)-2-(4,7-dimethoxy-6-azaindol-3-yl)-ethane-1,2-dione]", "EC50": "< 1000"},
      {"smiles": "COc1ncc(OC)c2c(C(=O)C(=O)N3CCc4[nH]c5ccc(C(F)(F)F)cc5c4C3)c[nH]c12", "note": "[Example 5, 1-(8-Trifluoromethyl-1,3,4,5-tetrahydro-pyrido[4,3-b]indol-2-yl)-2-(4,7-dimethoxy-6-azaindol-3-yl)-ethane-1,2-dione]", "EC50": "1000 to 5000"},
      {"smiles": "COc1cnc(-n2cnc(C)n2)c2[nH]cc(C(=O)C(=O)N3CCc4c(c5ccccc5n4-c4ccccc4)C3)c12", "note": "[Example 6, 1-(5-Phenyl-1,3,4,5-tetrahydro-pyrido[4,3-b]indol-2-yl)-2-[4-methoxy-7-(3-methyl-1,2,4-triazol-1-yl)-6-azaindol-3-yl]-ethane-1,2-dione]", "EC50": "< 1000"},
      {"smiles": "COc1cnc(-n2ncnc2C)c2[nH]cc(C(=O)C(=O)N3CCc4c(c5ccccc5n4-c4ccccc4)C3)c12", "note": "[Example 7, 1-(5-Phenyl-1,3,4,5-tetrahydro-pyrido[4,3-b]indol-2-yl)-2-[4-methoxy-7-(5-methyl-1,2,4-triazol-1-yl)-6-azaindol-3-yl]-ethane-1,2-dione]", "EC50": "< 1000"},
      {"smiles": "COc1cnc(-n2cnc(C)n2)c2[nH]cc(C(=O)C(=O)N3CCc4c(c5cc(F)ccc5n4-c4ccccc4)C3)c12", "note": "[Example 8, 1-(8-Fluoro-5-phenyl-1,3,4,5-tetrahydro-pyrido[4,3-b]indol-2-yl)-2-[4-methoxy-7-(3-methyl-1,2,4-triazol-1-yl)-6-azaindol-3-yl]-ethane-1,2-dione]", "EC50": "< 1000"},
      {"smiles": "COc1cnc(-n2ccnn2)c2[nH]cc(C(=O)C(=O)N3CCc4c(c5cc(F)ccc5n4-c4ccccc4)C3)c12", "note": "[Example 9, 1-(8-Fluoro-5-phenyl-1,3,4,5-tetrahydro-pyrido[4,3-b]indol-2-yl)-2-[4-methoxy-7-(1,2,3-triazol-1-yl)-6-azaindol-3-yl]-ethane-1,2-dione]", "EC50": "< 1000"}
    ]}
  ]
}
